From PubChem BioAssay (NCI)
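Interpolation was linear, between the two tested concentrations surrounding the appropriate level; five concentrations were tested over 48 hours in 96-well plates. At the TGI there is no net growth.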

Columns and labels:
Assay in all cases: growth of human tumour cells (NCI), 48 h
SN12C renal = system: SN12C renal
RXF 393 renal = system: RXF 393 renal
NCI-H522 lung = system: NCI-H522 lung
XF 498 CNS = system: XF 498 CNS
LOX IMVI melanoma = system: LOX IMVI melanoma
SK-MEL-5 melanoma = system: SK-MEL-5 melanoma
M19-MEL melanoma = system: M19-MEL melanoma
HCT-15 colon = system: HCT-15 colon
KM20L2 colon = system: KM20L2 colon
DMS 114 small cell lung = system: DMS 114 small cell lung
HS 578T breast = system: HS 578T breast
MDA-MB-435 = system: MDA-MB-435

Structure (SMILES) | TGI (SN12C renal) [µM] | TGI (RXF 393 renal) [µM] | TGI (NCI-H522 lung) [µM] | TGI (XF 498 CNS) [µM] | TGI (LOX IMVI melanoma) [µM] | TGI (SK-MEL-5 melanoma) [µM] | TGI (M19-MEL melanoma) [µM] | TGI (HCT-15 colon) [µM] | TGI (KM20L2 colon) [µM] | TGI (DMS 114 small cell lung) [µM] | TGI (HS 578T breast) [µM] | TGI (MDA-MB-435) [µM]
COc1ccc(C2COc3cc(OC(C)=O)c(OC(C)=O)cc3C2)cc1 (stereo not drawn) | 32.9 | 34.1 | 6.3 | 23.9 | 37.2 | 48.2 | 37.7 | 52.9 | 65.8 | 20.6 | – | –
O=C1C(Cl)N(c2ccc(Cl)cc2)C1c1c[nH]c2ccccc12 (stereo not drawn) | 36 | 42.1 | 39 | 31.3 | – | 31 | 98.4 | – | 38.3 | 45.2 | – | –
O=C(O)c1ccc(Nc2c3ccccc3nc3ccccc23)cc1 | > 100 | > 100 | > 100 | – | > 100 | > 100 | > 100 | > 100 | > 100 | > 100 | – | –
CC(C)CC1C(=O)NCCC(NC(=O)C(Cc2ccc(OC(C)(C)C)cc2)NC(=O)OC(C)(C)C)C(=O)NC(Cc2ccccc2)C(=O)NC(Cc2ccccc2)NC1=O (stereo not drawn) | 39.8 | 27.2 | 35.4 | – | 19.3 | 85.9 | – | > 100 | – | – | > 100 | 12.2
COC(=O)CC(C#N)(OP1(=O)OC(c2ccccc2)C(C)N1C)c1ccccc1 (stereo not drawn) | 77 | 52.3 | > 100 | – | 53.4 | > 100 | – | > 100 | – | – | > 100 | 53.7
C[N+](CCCl)(CCCl)Cc1cccc2cccc([N+](=O)[O-])c12 | > 100 | > 100 | > 100 | – | > 100 | > 100 | – | > 100 | – | – | > 100 | > 100
OC1(C(F)(F)F)OCCN=C1C(F)(F)F (stereo not drawn) | > 100 | > 100 | > 100 | – | > 100 | > 100 | – | > 100 | – | – | 81.3 | > 100
O=C(C=P(c1ccccc1)(c1ccccc1)c1ccccc1)c1ccc(-c2cccc([N+](=O)[O-])c2)s1 | > 100 | > 100 | > 100 | – | > 100 | 74.2 | – | > 100 | – | – | > 100 | > 100
O=C1NC(=O)C(c2c[nH]c3ccccc23)=C1c1cnc[nH]1 | > 100 | > 100 | > 100 | – | > 100 | 78.1 | – | > 100 | – | – | > 100 | > 100
CCOC(=O)c1c(NC(=O)c2cccs2)sc2c1CCCC2 | > 100 | 30.8 | > 100 | – | > 100 | > 100 | – | > 100 | – | – | 76.9 | > 100
COc1ccc(N2C(=O)/C(=C(\C)c3cc4ccccc4oc3=O)N=C2c2cc([N+](=O)[O-])ccc2Cl)cc1 | > 100 | – | 39.1 | – | > 100 | > 100 | > 100 | – | > 100 | > 100 | – | –
CC(C)C(=O)[C@@]1(C)SC[C@H]2CCN=C21 | > 100 | > 100 | > 100 | – | > 100 | > 100 | – | > 100 | – | – | > 100 | > 100
COC(=O)C1=C(C)NC2=C(C(=O)c3ccccc32)C1c1cn(-c2ccccc2)nc1-c1ccccc1 (stereo not drawn) | > 100 | > 100 | > 100 | – | > 100 | > 100 | – | > 100 | – | – | > 100 | > 100
CCN(CC)CC1CCCCCCCCCCC1=O (stereo not drawn) | > 100 | – | > 100 | > 100 | > 100 | > 100 | > 100 | > 100 | > 100 | > 100 | – | –
CC(=O)N(C)c1ccc(Nc2cc(C)[nH]c3ccc4ncnc4c23)cc1 | 34.9 | 22.9 | 21.6 | 5.92 | 15.9 | 17.7 | 20.1 | 93.3 | 37.2 | 20.4 | 35.5 | 23.3
CC1=CC(C)C/C=C/C2C3OC3(C)C(C)C3C(Cc4c[nH]c5ccccc45)NC(=O)C23C(=O)C=CC(=O)C1O (stereo not drawn) | 30.7 | 2.94 | 8.03 | – | 17.9 | 24.4 | – | 8.67 | – | – | 56.5 | 46.6
Cc1cc(C)n(C(=C(C(Cl)=C(Cl)Cl)[N+](=O)[O-])n2nc(C)cc2C)n1 | 15.9 | 16 | 6.74 | – | 4.69 | 3.88 | – | 11.4 | – | – | 20.6 | 5.56
CC1(C)CC(=O)c2[nH]c3ccccc3c2CC(=O)NCCc2cn1cn2 | > 100 | > 100 | > 100 | – | > 100 | > 100 | – | > 100 | – | – | > 100 | > 100
CCCn1c2ccccc2c2ccc3c(c21)C(=O)C=CC3=O | > 7.53 | 3.87 | 3.54 | – | > 10 | > 10 | – | 4.7 | – | – | > 10 | 5.29
Nc1ccc(-c2nc3cc(F)ccc3s2)cc1Cl | > 71.8 | > 100 | > 100 | – | > 100 | > 100 | – | > 100 | – | – | > 90.4 | > 100
Nc1ncnc2c1ccn2C/C=C\CO | > 100 | > 100 | > 100 | – | > 100 | > 100 | – | > 100 | – | – | > 100 | > 100
O=c1[nH]c2c(nc1NC13CC4CC(CC(C4)C1)C3)c(=O)oc1ccccc12 | > 100 | > 100 | > 100 | > 100 | > 100 | > 100 | > 100 | > 100 | > 100 | > 100 | – | –
C=C(CCC/C(C)=C/C=C/[C@]1(C)CCCc2ccoc21)CC(=O)O | > 100 | > 100 | > 100 | – | > 100 | > 100 | – | > 100 | – | – | > 100 | > 100
COCC1OC(Sc2ccccc2)C(O)C(OC)C1OC (stereo not drawn) | > 100 | > 100 | > 100 | – | > 100 | > 100 | – | > 100 | – | – | > 100 | > 100
O=C(NC(Cc1c[nH]c2ccccc12)C(=O)Nc1ccc(Br)cc1)OCc1ccccc1 (stereo not drawn) | 22.5 | 22.2 | 28.6 | – | 22.7 | 22.5 | – | 26.7 | – | – | 56.3 | 22.1
CC(=O)c1ccc(NCc2cc(O)ccc2O)cc1 | 92.8 | 27.9 | > 100 | – | 74.3 | 57.2 | – | > 100 | – | – | > 100 | 58.6
OC1[C@@H]2[C@@H](O)[C@H](O)[C@@H](O)N2C[C@@H]1O (stereo partly drawn) | > 100 | > 100 | > 100 | – | > 100 | > 100 | – | > 100 | – | – | > 100 | > 100
CCN(CC)CCC(=O)/C=C/c1ccccc1 | 38.6 | 21.5 | 24.2 | – | 7.16 | 44.8 | – | 32 | – | – | 39.9 | 23.2
